Reference: patent US20090326008A1, “NF-kappa B Inhibitor” (priority 2006, published 2009)

Assays:
Format in all cases: cell-based, human
NF-κB = assay: NF-kappaB reporter assay (pNF-kappaB-SEAP) in IL-1β-stimulated MKN-45 cells; details: IL-1β 2 ng/mL for 6 hours, DMSO (0.05%) control = 1.00, triplicate
Description: pNF-kappaB-SEAP was obtained from Clonetech Laboratories Inc.
Cryopreserved MKN-45 cells (product of JCRB (Japanese Collection of Research Bioresources)) were thawed and cultured in a standard medium in an incubator (37° C., 5% CO2). Every three to five days, the cells were recovered by treatment with Trypsin-EDTA, then adequately diluted and subcultured. MKN-45 cells subcultured two or more times with a survival rate of 95% or more were used in each experiment.
The subcultured MKN-45 cells were harvested using Trypsin-EDTA solution, and the number of viable cells was counted. The cells were suspended in a standard medium to yield a 1.5×10^5 cells/mL suspension. A 24-well plate was seeded with 500 μL/well of the cell suspension, and the cells were cultured in an incubator (37° C., 5% CO2).
The day after seeding, transfection was performed according to the following protocol.
(4.1) Preparation of Plasmid Solution 4 μL of 0.1 μg/μL pNFkappaB-SEAP was placed into each well and diluted with 50 μL of OPTI-MEM I (product of Invitrogen Japan K.K.) by mixing by inversion.
1 μL of Lipofectamine 2000 reagent (product of Invitrogen) was placed into each well and diluted with 50 μL of OPTI-MEM I (product of Life Technologies Inc.) by mixing by inversion. The mixture was allowed to stand at room temperature for 5 to 10 minutes to prepare a Lipofectamine dilution.
The plasmid solution and the Lipofectamine dilution were mixed by inversion and allowed to stand at room temperature for 20 to 30 minutes to prepare a transfection mixture.
The culture medium was removed from the 24-well plate by suction. While care was taken not to dry the subcultured MKN-45 cells, the inner surface of the wells was washed with 1 mL/well of PBS. After the medium was replaced with 500 μL/well of OPTI-MEM I (product of Life Technologies Inc.), 100 μL/well of the transfection mixture was added, and the cells were cultured in a incubator (37° C., 5% CO2). After about 5 hours of incubation, the medium was replaced with a standard medium, and the cells were further cultured in a CO2 incubator (37° C., 5% CO2) until the following day.
On the following morning, the culture medium supernatant was removed by suction and replaced with 1 mL/well of the test compound solution or control solution diluted with a standard medium. The cells were cultured in a CO2 incubator (37° C., 5% CO2) for 1 hour. Each experiment was performed in triplicate.
200 ng/mL IL-1β was added in an amount of 10 μL/well (final concentration: 2 ng/mL), and the cells were cultured in a CO2 incubator (37° C., 5% CO2) for 6 hours.
A reporter assay was performed using Reporter Assay Kit-SEAP (product of Toyobo Co.) according to the manufacturer's protocol.
More specifically, 500 μL of the culture broth was transferred into a tube and centrifuged at 15,000 rpm for 5 minutes at 4° C. The supernatant was transferred into a 96-well white plate. The positive control included in the Reporter Assay Kit-SEAP, and a standard medium as a blank control were each added in an amount of 20 μL/well to the 96-well white plate. Further, an inhibitor for inhibiting the AP activity of the MKN-45 cells was added in an amount of 20 μL/well. After sealing the plate, the contents were mixed well. The plate was placed into a CO2 incubator (37° C., 5% CO2) and allowed to stand for 30 minutes. Subsequently, the plate was allowed to stand on ice for 1 minute, followed by addition of 160 μL/well of Lumi-Phos Plus (a chemiluminescent substrate, product of Lumigen Inc.). The plate was sealed again and placed in a light-shielded state into a CO2 incubator (37° C., 5% CO2). After the plate was allowed to stand for 15 to 30 minutes, luminescence was measured for about 5 to about 10 seconds using a luminometer.
The results of the reporter assay were expressed as Percent Control (or Inhibition), calculated according to the following formulae. The luminescence of each sample was calculated by subtracting the average of blank samples.

COX2 = assay: Relative COX2 mRNA expression in IL-1β-stimulated MKN-45 cells (real-time PCR); details: IL-1β-stimulated DMSO-treated cells = 100%, ACTB reference
Description: (§1) RNA was extracted from the cells used in Example 2 according to the manufacturer's protocol for ABI Prism 6100 Nucleic Acid PrepStation (a nucleic acid isolation system, product of Applied Biosystems). More specifically, after removal of the culture supernatant and washing with 1 mL of PBS, 250 μL of Nucleic Acid Purification Lysis Solution (Part No. 4305895, Applied Biosystems) was added, and then agitated using a shaker for 2 to 3 minutes. The Lysis Solution containing the cell lysate was collected, and the total amount was transferred to the wells of RNA Purification Tray (Part No. 4305673, Applied Biosystems), which had been pre-wet with 40 μL of Nucleic Acid Purification Wash Solution I (Part No. 4305891, Applied Biosystems) beforehand. Aspiration (20% pressure) was performed for 2 minutes to adsorb the sample onto the RNA Purification Tray, followed by sequentially adding and aspirating (20% pressure, 2 min.) 500 μL of Wash Solution I, Nucleic Acid Purification (Part No. 4305891, Applied Biosystems), 400 μL of Wash Solution II, Nucleic Acid Purification (Part No. 4305890, product of Applied Biosystems), 400 μL of the Wash Solution II, and 300 μL of the Wash Solution II in that order. Aspiration (90% pressure) was performed for 5 minutes to remove the water content from the RNA Purification Trays. After addition of 150 μL of Elution Solution, Nucleic Acid Purification (Part No. 4305893, product of Applied Biosystems), aspiration (20% pressure) was performed for 2 minutes, while collecting the outflow. This was used as collected RNA solution.
(§2) Absorbance of the collected RNA solution at 260 nm was measured using a microplate spectrophotometer (“SpectraMax Plus”, product of Molecular Devices) with an analysis software (“SOFTmaxPRO ver.3.1.2”, product of Molecular Devices), and the RNA concentration was determined from the absorbance. Likewise, absorbance at 280 nm was measured and the purity of the RNA was determined using the analysis software.
(§3) cDNA was synthesized according to the manufacturer's protocol for TaqMan® Reverse Transcription Reagents (Part No. N808-0234, product of Applied Biosystems). More specifically, about 0.5 μg of RNA, 2.5 μL of 10×RT buffer, 5.5 μL of MgCl2 solution, 5 μL of dNTP mixture, 1.25 μL of random hexamer (primers), 0.5 μL of RNase inhibitor, and 0.63 μL of MultiScribe Reverse Transcriptase (product of Applied Biosystems) were added to each collected RNA sample in a tube, and DEPC-treated water was added to make a total volume of 25 μL and stirred. A reaction consisting of 25° C. for 10 minutes, 48° C. for 30 minutes, and 95° C. for 5 minutes was performed using a PCR thermal cycler (“TaKaRa PCR Thermal Cycler Dice”, product of Takara Bio Inc.) to prepare a cDNA solution.
(§4) PCR was performed according to the manufacturer's protocol for TaqMan® Gene Expression Assays (product of Applied Biosystems). More specifically, 5 μL of TaqMan® Fast Universal PCR Master Mix (product of Applied Biosystems), 0.5 μL of TaqMan® Gene Expression Assays for the target gene (gene-specific probe and primer sets, product of Applied Biosystems), and 4.5 μL of the above-obtained cDNA solution were added to each sample and stirred. A PCR reaction consisting of heating at 95° C. for 20 seconds, followed by 40 cycles consisting of heating at 95° C. for 3 seconds and annealing and extension at 60° C. for 30 seconds was performed using a real-time PCR device (“Applied Biosystems 7500 Real-Time PCR System”) with SDS v1.4 Software (product of Applied Biosystems). Threshold cycle (Ct) values were calculated using the software.
(§5) The Assay IDs of the TaqMan® Gene Expression Assays for the target genes used are as follows:
(§6) The expression level of each gene was determined according to the following formula using the level of ACTB as a reference standard.
(§7) (Relative mRNA expression level)=2̂−{(Ct value of the target gene)−(Ct value of ACTB)} […]

TNFα = assay: Relative TNFα mRNA expression in IL-1β-stimulated MKN-45 cells (real-time PCR); details: IL-1β-stimulated DMSO-treated cells = 100%, ACTB reference
Description: as §1, §2, §3, §4, §5, §6, §7

IL-8 = assay: Relative IL-8 mRNA expression in IL-1β-stimulated MKN-45 cells (real-time PCR); details: IL-1β-stimulated DMSO-treated cells = 100%, ACTB reference
Description: as §1, §2, §3, §4, §5, §6, §7

SMILES | NF-kappaB reporter (SEAP luminescence) IL-1b(+) mean, relative to control (NF-κB) | COX2 relative mRNA expression level, Mean (COX2) [%] | TNFa relative mRNA expression level, Mean (TNFα) [%] | IL-8 relative mRNA expression level, Mean (IL-8) [%]
Cc1ccc(CC(=O)N2CCC(CCN3C(=O)CCc4c(CC5SC(=O)NC5=O)cccc43)CC2)cc1 (stereo not drawn) [Test Compound 616] | 0.57 | 26.3 | 31.4 | 35.3
COc1ccc(CC2SC(=S)NC2=O)c2c1N(CC1CC1)C(=O)CC2 (stereo not drawn) [Test Compound 980] | 0.63 | 53.8 | 98.0 | 79.4
Cc1ccc(CN2C(=O)CCc3c(CC4SC(=S)NC4=O)cccc32)cc1 (stereo not drawn) [Test Compound 993] | 0.59 | 27.6 | 46.8 | 45.6
COc1ccc(CC2SC(=O)NC2=O)c2c1N(CC1CCN(c3ccc(C)cc3)CC1)C(=O)CC2 (stereo not drawn) [Test Compound 164] | 0.78 | 21.7 | 30.0 | 24.8
CCNC(=O)CCCN1C(=O)CCc2c(CC3SC(=O)NC3=O)ccc(OC)c21 (stereo not drawn) [Test Compound 613] | 0.86 | 112.4 | 94.0 | 91.5
COC(=O)c1ccc(CN2C(=O)CCc3c(CC4SC(=O)NC4=O)ccc(OC)c32)cc1 (stereo not drawn) [Test Compound 025] | 0.58 | 38.3 | 53.0 | 59.9
COc1ccc(CC2SC(=O)NC2=O)c2c1N(CC(=O)Nc1ccc(C(F)(F)F)cc1)C(=O)CC2 (stereo not drawn) [Test Compound 612] | 0.67 | 33.4 | 31.1 | 41.8
O=C1NC(=S)SC1Cc1ccc2c(c1)CCC(=O)N2Cc1ccc(-c2ccccc2)cc1 (stereo not drawn) [Test Compound 995] | 0.66 | 28.1 | 29.3 | 38.3
O=C1NC(=O)C(Cc2cccc3c2CCC(=O)N3c2ccccc2)S1 (stereo not drawn) [Test Compound 150] | 0.71 | 53.7 | 53.9 | 52.0
COc1ccc(CC2SC(=S)NC2=O)c2c1N(Cc1ccc3ccccc3c1)C(=O)CC2 (stereo not drawn) [Test Compound 971] | 0.56 | 30.8 | 63.4 | 55.9
CC(C)(C)OC(=O)N1CCC(CCN2C(=O)CCc3c(CC4SC(=O)NC4=O)cccc32)CC1 (stereo not drawn) [Test Compound 159] | 0.64 | 27.7 | 33.5 | 34.0
COc1ccc(CC2SC(=O)NC2=O)c2c1N(Cc1ccc(Br)cc1)C(=O)CC2 (stereo not drawn) [Test Compound 123] | 0.46 | 28.6 | 28.5 | 48.3
CCCCCOC(=O)Nc1ccc(CN2C(=O)CCc3c(CC4SC(=O)NC4=O)ccc(OC)c32)cc1 (stereo not drawn) [Test Compound 232] | 0.71 | 29.9 | 28.9 | 33.8
COc1ccc(CC2SC(=O)NC2=O)c2c1N(Cc1ccc(NC(=O)Oc3ccc(C)cc3)cc1)C(=O)CC2 (stereo not drawn) [Test Compound 233] | 0.85 | 24.9 | 28.9 | 30.4
COc1ccc(CC2SC(=O)NC2=O)c2c1N(Cc1ccc(NC(=O)OCc3ccccc3)cc1)C(=O)CC2 (stereo not drawn) [Test Compound 234] | 0.67 | 24.0 | 32.4 | 28.3
